In publication PMC12385147, “Discovery of Novel 2-Substituted Aniline Pyrimidine Based Derivatives as Potent Mer/c-Met Dual Inhibitors with Improvement Bioavailability” (Biomolecules, 2025):
Like-named read-outs stand apart in the source and are kept apart here.

Legend:
[1] = cited from earlier work
[2] = Plasma protein binding, equilibrium dialysis, rat plasma; assay type: in vitro ADME; conditions: 1 μM
Mer kinase = biological target: T1, Mer kinase (Homo sapiens, UniProt Q12866); test: Mer kinase inhibition assay (TK-Sub-Biotin / cryptate detection); assay type: biochemical; conditions: for IC50: means from three independent experiments
T1 construct: purchased Invitrogen (Shanghai, China)
T1 sequence (Q12866 21-999): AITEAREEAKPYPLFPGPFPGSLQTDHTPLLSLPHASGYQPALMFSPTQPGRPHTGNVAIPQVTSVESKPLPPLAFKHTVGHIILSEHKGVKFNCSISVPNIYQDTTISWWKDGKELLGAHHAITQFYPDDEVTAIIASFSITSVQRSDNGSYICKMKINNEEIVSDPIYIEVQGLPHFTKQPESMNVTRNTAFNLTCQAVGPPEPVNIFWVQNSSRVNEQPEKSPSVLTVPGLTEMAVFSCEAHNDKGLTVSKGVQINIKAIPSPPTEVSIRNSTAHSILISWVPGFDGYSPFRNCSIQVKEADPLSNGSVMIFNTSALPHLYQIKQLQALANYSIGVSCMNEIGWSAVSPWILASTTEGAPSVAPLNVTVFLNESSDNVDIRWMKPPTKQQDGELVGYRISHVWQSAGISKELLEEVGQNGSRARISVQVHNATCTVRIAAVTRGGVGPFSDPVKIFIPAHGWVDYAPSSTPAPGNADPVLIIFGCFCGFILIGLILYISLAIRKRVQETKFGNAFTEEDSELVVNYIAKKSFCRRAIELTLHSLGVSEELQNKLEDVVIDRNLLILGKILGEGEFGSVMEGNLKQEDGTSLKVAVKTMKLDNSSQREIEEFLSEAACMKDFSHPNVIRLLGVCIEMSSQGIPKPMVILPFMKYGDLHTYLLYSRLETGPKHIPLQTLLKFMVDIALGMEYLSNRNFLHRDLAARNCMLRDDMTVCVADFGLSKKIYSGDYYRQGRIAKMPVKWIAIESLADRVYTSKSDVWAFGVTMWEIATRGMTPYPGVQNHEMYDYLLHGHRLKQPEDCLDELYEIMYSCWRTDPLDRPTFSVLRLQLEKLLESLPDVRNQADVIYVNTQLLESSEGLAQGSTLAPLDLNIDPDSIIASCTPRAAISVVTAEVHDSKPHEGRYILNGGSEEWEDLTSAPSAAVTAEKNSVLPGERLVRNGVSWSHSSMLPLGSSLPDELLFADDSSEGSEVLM

c-Met kinase = biological target: T2, c-Met kinase (Homo sapiens, UniProt P08581); test: c-Met kinase inhibition assay (TK-Sub-Biotin / cryptate detection); assay type: biochemical; conditions: for IC50: means from three independent experiments
T2 construct: purchased Invitrogen (Shanghai, China)
T2 sequence (P08581 25-1390): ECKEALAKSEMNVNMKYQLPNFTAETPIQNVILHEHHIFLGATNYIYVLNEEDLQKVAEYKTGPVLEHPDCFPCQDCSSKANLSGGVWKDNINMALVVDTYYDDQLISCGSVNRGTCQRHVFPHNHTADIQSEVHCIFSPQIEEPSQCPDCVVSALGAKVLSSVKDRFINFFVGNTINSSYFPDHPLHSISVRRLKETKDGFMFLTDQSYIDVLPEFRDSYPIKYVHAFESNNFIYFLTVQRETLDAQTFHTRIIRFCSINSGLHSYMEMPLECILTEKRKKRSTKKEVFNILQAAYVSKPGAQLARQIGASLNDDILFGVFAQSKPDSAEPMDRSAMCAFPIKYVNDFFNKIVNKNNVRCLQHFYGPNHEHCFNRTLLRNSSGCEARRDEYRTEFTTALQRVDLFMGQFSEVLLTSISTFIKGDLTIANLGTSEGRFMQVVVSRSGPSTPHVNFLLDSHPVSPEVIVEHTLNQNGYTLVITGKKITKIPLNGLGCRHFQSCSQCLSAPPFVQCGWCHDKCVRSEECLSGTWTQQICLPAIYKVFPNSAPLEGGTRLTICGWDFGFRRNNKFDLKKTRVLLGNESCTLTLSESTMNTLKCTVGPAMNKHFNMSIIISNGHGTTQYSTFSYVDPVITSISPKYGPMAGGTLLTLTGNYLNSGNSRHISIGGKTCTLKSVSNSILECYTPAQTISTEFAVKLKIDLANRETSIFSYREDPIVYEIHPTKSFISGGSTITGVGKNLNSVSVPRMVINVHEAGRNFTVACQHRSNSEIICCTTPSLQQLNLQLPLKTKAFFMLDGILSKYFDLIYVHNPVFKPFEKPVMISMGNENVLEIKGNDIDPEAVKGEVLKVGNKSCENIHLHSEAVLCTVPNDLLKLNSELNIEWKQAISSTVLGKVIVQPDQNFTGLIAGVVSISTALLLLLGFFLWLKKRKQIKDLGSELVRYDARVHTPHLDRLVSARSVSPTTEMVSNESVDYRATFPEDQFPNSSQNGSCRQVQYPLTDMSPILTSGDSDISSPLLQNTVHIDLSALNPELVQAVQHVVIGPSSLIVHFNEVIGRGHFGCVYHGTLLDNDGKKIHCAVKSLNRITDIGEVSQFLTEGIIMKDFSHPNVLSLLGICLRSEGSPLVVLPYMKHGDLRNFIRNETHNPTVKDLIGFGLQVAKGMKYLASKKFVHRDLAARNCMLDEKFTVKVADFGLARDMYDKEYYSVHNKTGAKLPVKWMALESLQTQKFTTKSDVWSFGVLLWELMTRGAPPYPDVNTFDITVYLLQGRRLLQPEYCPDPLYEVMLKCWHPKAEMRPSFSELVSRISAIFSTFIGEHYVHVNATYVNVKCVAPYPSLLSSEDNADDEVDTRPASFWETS

[3] = Liver microsome stability assay; assay type: in vitro ADME, human; conditions: human, liver microsomes, pH 7.4, human liver microsomes; for microsomal CLint: read-out: CL (intrinsic clearance)
HepG2 = test: Antiproliferation CCK-8 assay, HepG2; assay type: cell-based; conditions: Homo sapiens, CCK-8, 72 h
Description: (§1) The HepG2, MDA-MB-231, and HCT116 cell lines were derived from our own laboratory (the laboratory of our collaborator, Dr. Xiaolei Zhou, at College of Food Science and Biology in Hebei University of Science and Technology). The antiproliferative activities were assessed using the CCK-8 assay. Cell viability was measured according to the manufacturer’s instructions for the Cell Counting Kit-8 (Meilunbio, Dalian, China). In this assay, 2.5 × 10^3 cells per well were seeded into 96-well plates.
(§2) After an initial 12 h incubation, cancer cells were exposed to varying concentrations of compound 17c for 72 h. Following CCK-8 solution addition and 2 h incubation, the absorbance at 450 nm was measured using a BioTek Synergy HTX microplate reader. Experiments included triplicate wells with three independent replicates. The IC50 values for compound 17c were derived from an analysis of the dose–response curves in GraphPad PRISM 9.5.

HCT116 = test: Antiproliferation CCK-8 assay, HCT116; assay type: cell-based; conditions: Homo sapiens, HCT-116; CCK-8, 72 h; read-out: IC50 HCT116
Description: as §1, §2

MDA-MB-231 = test: Antiproliferation CCK-8 assay, MDA-MB-231; assay type: cell-based; conditions: Homo sapiens, CCK-8, 72 h
Description: as §1, §2

[4] = cited from earlier work; remark: listed apart in the source

Row | IC50 (Mer kinase) | IC50 (c-Met kinase) | SMILES | further results
1 | 11.9 ± 1.7 nM | 45 ± 6.8 nM | Cc1c(C(=O)Nc2ccc(Oc3ccnc(Nc4ccc(NC(=O)C(C)N5CCN(C)CC5)cc4)n3)cc2)c(=O)n(-c2ccccc2)n1C (centres unmarked) [compound 17h, 1,5-dimethyl-N-(4-((2-((4-(2-(4-methylpiperazin-1-yl)propanamido)phenyl)amino)pyrimidin-4-yl)oxy)phenyl)-3-oxo-2-phenyl-2,3-dihydro-1H-pyrazole-4-carboxamide] | 
2 | 5.5 ± 0.8 nM | 25 ± 3.5 nM | CC(=O)N1CCN(c2cccc(Nc3nccc(Oc4ccc(NC(=O)c5c(C)n(C)n(-c6ccccc6)c5=O)cc4)n3)c2)CC1 [compound 17f, N-(4-((2-((3-(4-acetylpiperazin-1-yl)phenyl)amino)pyrimidin-4-yl)oxy)phenyl)-1,5-dimethyl-3-oxo-2-phenyl-2,3-dihydro-1H-pyrazole-4-carboxamide] | half-life [3]: 51 min; microsomal CLint [3]: 68 µL/min/mg
3 | 12.1 ± 1.3 nM | 101 ± 18.5 nM | COCCNc1cccc(Nc2nccc(Oc3ccc(NC(=O)c4c(C)n(C)n(-c5ccccc5)c4=O)cc3)n2)c1 [compound 17b, N-(4-((2-((3-((2-methoxyethyl)amino)phenyl)amino)pyrimidin-4-yl)oxy)phenyl)-1,5-dimethyl-3-oxo-2-phenyl-2,3-dihydro-1H-pyrazole-4-carboxamide] | 
4 | > 1000 nM | 140 ± 18.9 nM | Cc1c(C(=O)Nc2ccc(Oc3ccnc(Nc4ccc(NC(=O)CN5CCN(C)CC5)nc4)n3)cc2)c(=O)n(-c2ccccc2)n1C [compound 17g, 1,5-dimethyl-N-(4-((2-((6-(2-(4-methylpiperazin-1-yl)acetamido)pyridin-3-yl)amino)pyrimidin-4-yl)oxy)phenyl)-3-oxo-2-phenyl-2,3-dihydro-1H-pyrazole-4-carboxamide] | 
5 | 26.2 ± 7.1 nM | 233 ± 25.4 nM | Cc1c(C(=O)Nc2ccc(Oc3ccnc(Nc4ccc(OC5CCN(C)CC5)cc4)n3)cc2)c(=O)n(-c2ccccc2)n1C [compound 17a, 1,5-dimethyl-N-(4-((2-((4-((1-methylpiperidin-4-yl)oxy)phenyl)amino)pyrimidin-4-yl)oxy)phenyl)-3-oxo-2-phenyl-2,3-dihydro-1H-pyrazole-4-carboxamide] | 
6 | 69.8 ± 12.5 nM | 236 ± 25.6 nM | CC(=O)N1CCN(c2ccc(Nc3nccc(Oc4ccc(NC(=O)c5c(C)n(C)n(-c6ccccc6)c5=O)cc4)n3)cc2)CC1 [compound 17e, N-(4-((2-((4-(4-acetylpiperazin-1-yl)phenyl)amino)pyrimidin-4-yl)oxy)phenyl)-1,5-dimethyl-3-oxo-2-phenyl-2,3-dihydro-1H-pyrazole-4-carboxamide] | 
7 | 84.1 ± 13.9 nM | 137 ± 34.3 nM | Cc1c(C(=O)Nc2ccc(Oc3ccnc(Nc4ccc(C(=O)N5CCN(C)CC5)cc4)n3)cc2)c(=O)n(-c2ccccc2)n1C [compound 17d, 1,5-dimethyl-N-(4-((2-((4-(4-methylpiperazine-1-carbonyl)phenyl)amino)pyrimidin-4-yl)oxy)phenyl)-3-oxo-2-phenyl-2,3-dihydro-1H-pyrazole-4-carboxamide] | 

The remaining lines, values behind:

Row | SMILES | IC50 (Mer kinase) | IC50 (c-Met kinase) | further results
8 | CN1CCN(Cc2ccc(-c3cn([C@H]4CC[C@H](O)CC4)c4nc(NCCC5CC5)ncc34)cc2)CC1 [MRX2843] |  |  | brain/plasma ration ([1]; CNS penetration): 0.4
9 | CC(=O)CC(c1ccccc1)c1c(O)c2ccccc2oc1=O (centres unmarked) [Warfarin, reference compound] |  |  | Mean Fb [2]: 99.0%
10 | COCCN1CCN(CC(=O)Nc2ccc(Nc3nccc(Oc4ccc(NC(=O)C5(C(=O)Nc6ccc(F)cc6)CC5)cc4)n3)cc2)CC1 [compound 13k] | 37.3 ± 10.6 nM | 35.4 ± 10 nM | half-life [3]: 38.4 min; microsomal CLint [3]: 124 µL/min/mg
11 | CN1CCN(C(=O)c2ccc(Nc3nccc(Oc4ccc(NC(=O)C5(C(=O)Nc6ccc(F)cc6)CC5)cc4)n3)cc2)CC1 [compound 13h, N-(4-fluorophenyl)-N-(4-((2-((4-(4-methylpiperazine-1-carbonyl)phenyl)amino)pyrimidin-4-yl)oxy)phenyl)cyclopropane-1,1-dicarboxamide] | 72 ± 8.9 nM | 41.6 ± 8.5 nM | 
12 | O=C(Nc1ccc(F)cc1)C1(C(=O)Nc2ccc(Oc3ccnc(Nc4cc(F)cc(F)c4)n3)cc2)CC1 [compound 13d, N-(4-((2-((3,5-difluorophenyl)amino)pyrimidin-4-yl)oxy)phenyl)-N-(4-fluorophenyl)cyclopropane-1,1-dicarboxamide] | 640 ± 82.2 nM | 728 ± 131 nM | 
13 | COc1cc2nccc(Oc3ccc(NC(=O)C4(C(=O)Nc5ccc(F)cc5)CC4)cc3)c2cc1OC [cabozantinib, reference compound] |  |  | IC50 (HepG2): 7870 ± 2110 nM; IC50 (HCT116): 15600 ± 4390 nM; IC50 (MDA-MB-231): 4620 ± 540 nM
14 | CCCCNc1ncc2c(-c3ccc(F)cc3)nn(CC3CCC(N)CC3)c2n1 (centres unmarked) [UNC569] |  |  | oral bioavailability F [1]: < 10%; human microsomal t1/2 [4]: < 15 min
15 | CN1CCC(Oc2ccc(Nc3nccc(Oc4ccc(NC(=O)C5(C(=O)Nc6ccc(F)cc6)CC5)cc4)n3)cc2)CC1 [compound 13a, N-(4-fluorophenyl)-N-(4-((2-((4-((1-methylpiperidin-4-yl)oxy)phenyl)amino)pyrimidin-4-yl)oxy)phenyl)cyclopropane-1,1-dicarboxamide] | 21.7 ± 5.8 nM | 63.3 ± 9.1 nM | 
16 | CN1CCN(CC(=O)Nc2ccc(Nc3nccc(Oc4ccc(NC(=O)C5(C(=O)Nc6ccc(F)cc6)CC5)cc4)n3)cc2)CC1 [compound 18c] |  |  | oral bioavailability F ([1]; previous study): 2.84%
17 | O=C(NC1CCCNC1)c1ccc(Nc2nccc(Oc3ccc(NC(=O)C4(C(=O)Nc5ccc(F)cc5)CC4)cc3)n2)cc1 (centres unmarked) [compound 13g, N-(4-fluorophenyl)-N-(4-((2-((4-(piperidin-3-ylcarbamoyl)phenyl)amino)pyrimidin-4-yl)oxy)phenyl)cyclopropane-1,1-dicarboxamide] | > 1000 nM | > 1000 nM | 
18 | O=C(Nc1ccc(F)cc1)C1(C(=O)Nc2ccc(Oc3ccnc(Nc4cn[nH]c4)n3)cc2)CC1 [compound 13c, N-(4-((2-((1H-pyrazol-4-yl)amino)pyrimidin-4-yl)oxy)phenyl)-N-(4-fluorophenyl)cyclopropane-1,1-dicarboxamide] | 110 ± 15.7 nM | 48.9 ± 6.4 nM | 
19 | O=C(NC1CCCNC1)c1cccc(Nc2nccc(Oc3ccc(NC(=O)C4(C(=O)Nc5ccc(F)cc5)CC4)cc3)n2)c1 (centres unmarked) [compound 13f, N-(4-fluorophenyl)-N-(4-((2-((3-(piperidin-3-ylcarbamoyl)phenyl)amino)pyrimidin-4-yl)oxy)phenyl)cyclopropane-1,1-dicarboxamide] | > 1000 nM | > 1000 nM | 
20 | CC(=O)N1CCN(c2cccc(Nc3nccc(Oc4ccc(NC(=O)C5(C(=O)Nc6ccc(F)cc6)CC5)cc4)n3)c2)CC1 [compound 13e] | 7.5 ± 1.6 nM | 7.5 ± 1.1 nM | fold improvement over 18c, Mer IC50 (Mer kinase): 2.5 fold; fold improvement over 18c, c-Met IC50 (c-Met kinase): 4.5 fold; half-life [3]: 30.4 min; microsomal CLint [3]: 114 µL/min/mg
21 | CN(C)CCNCC(=O)Nc1ccc(Nc2nccc(Oc3ccc(NC(=O)C4(C(=O)Nc5ccc(F)cc5)CC4)cc3)n2)cc1 [compound 13j] | 13.1 ± 2.1 nM | 48.6 ± 11.2 nM | half-life [3]: 27.9 min; microsomal CLint [3]: 152 µL/min/mg
22 | COCCNc1cccc(Nc2nccc(Oc3ccc(NC(=O)C4(C(=O)Nc5ccc(F)cc5)CC4)cc3)n2)c1 [compound 13b] | 24.3 ± 5.7 nM | 25.9 ± 7.7 nM | half-life [3]: 38.3 min; microsomal CLint [3]: 90.5 µL/min/mg
23 | CCN(CC)CCNCC(=O)Nc1ccc(Nc2nccc(Oc3ccc(NC(=O)C4(C(=O)Nc5ccc(F)cc5)CC4)cc3)n2)cc1 [compound 13i, N-(4-((2-((4-(2-((2-(diethylamino)ethyl)amino)acetamido)phenyl)amino)pyrimidin-4-yl)oxy)phenyl)-N-(4-fluorophenyl)cyclopropane-1,1-dicarboxamide] | 95.3 ± 20.1 nM | 88.6 ± 13.9 nM | 
